{"source": "patent US20220241333A1", "about": "“MODULATION OF T CELL CYTOTOXICITY AND RELATED THERAPY” (Cancer Research Technology Limited, priority 2019, published 2022)", "key": {"Bcl6": {"target": "Bcl6 (Homo sapiens, UniProt P41182)", "conditions": "compared with BI-3802; cited from earlier work"}, "human naive CD4+ T cells": {"system": "human naive CD4+ T cells", "test": "GzmB expression in aCD3/aCD28-stimulated human naive CD4+ T cells", "assay_type": "cell-based", "conditions": "blockade of IL-2R signalling with anti-human CD25", "procedure": "FACS-purified human CD4^+ T cells were cultured in RPMI complete medium with irradiated autologous feeders cells in 1:1 ratio for 96 h, stimulated with aCD3 (OKT3) and aCD28 (9.3; BioXcell). To some wells anti-CD25 antibody (Basiliximab; Novartis) was added 48 hours post aCD3/CD28 stimulation."}, "[1]": {"system": "human CD4+ effector T cells", "test": "GZMB expression in human CD4+ effector T cells (PBMCs) treated with Bcl6 targeting drugs (flow cytometry)", "assay_type": "cell-based", "conditions": "100 nM, 72 h, low dose αCD3 0.5 ug/ml", "procedure": "(§1) Healthy donor human PBMCs were labelled with CellTrace Violet (ThermoFisher) according to manufacturer's protocol and cultured in RPMI media supplemented with 10% fetal bovine serum, 100 U/mL penicillin, 100 ug/ml streptomycin and 2 mM L-glutamine for 72 h. Cells were either left unstimulated or stimulated with αCD3 (clone OKT3) at a final concentration of 0.5 ug/ml. Cells were additionally treated with Bcl6 targeting drugs, or with a control compound (BI-5273), at a final concentration of 100 nM. Cells were stained for flow cytometry using a fixable viability dye (eBiosciences) and with directly conjugated antibodies against human CD3, CD4, CD8, FoxP3, CD25, GzmB, and Bcl6 using the FoxP3 Transcription factor staining Buffer set (ThermoFisher) according to the manufacturer's instructions."}, "human CD8+ T cells": {"system": "human CD8+ T cells", "test": "GZMB and BCL6 expression in human CD8+ T cells (PBMCs) treated with Bcl6 targeting drugs (flow cytometry)", "assay_type": "cell-based", "conditions": "100 nM, 72 h, low dose αCD3 0.5 ug/ml; compared to control compound BI-5273", "procedure": "as §1"}, "CD4+ effector T cells": {"system": "CD4+ effector T cells", "test": "GZMB expression in mouse CD4+ effector T cells treated with Bcl6 degrader (flow cytometry)", "assay_type": "cell-based", "conditions": "10 nM, 72 h, low dose αCD3+αCD28 0.1 ug/ml", "procedure": "Spleens and lymph nodes were taken from C57BL/6J mice, and processed through a 70 μm mesh using PBS, followed by red blood cell lysis using Red Blood cell lysis buffer (Sigma) according to the manufacturer's protocol. Lymphocytes were labelled with CellTrace Violet (ThermoFisher) according to manufacturer's protocol and cultured in RPMI media supplemented with 10% fetal bovine serum, 100 U/mL penicillin, 100 ug/ml streptomycin and 2 mM L-glutamine for 72 h. Cells were either left unstimulated or stimulated with αCD3 (clone 2C11, BioXcell) and αCD28 (clone 37.51, BioXcell) at 0.1 ug/ml. Cells were additionally treated with a Bcl6 degrader (BI-3802) or with a control compound (BI-5273), at a final concentration of 10 nM. […] Cells were stained for flow cytometry using a fixable viability dye (eBiosciences) and with directly conjugated antibodies against CD3, CD4, CD8, FoxP3, CD25, GzmB, PD-1 and Bcl6 using the FoxP3 Transcription factor staining Buffer set (ThermoFisher) according to the manufacturer's instructions."}, "[2]": {"system": "CD4+ Trp1 and OT-II T cells", "test": "GzmB upregulation in CD4+ Trp1 and OT-II TCR Tg T cells stimulated in vitro with antigen and cytokines", "assay_type": "cell-based, mouse", "conditions": "low antigen concentration (0.01 μM OVA peptide), comparison of CGAMMA chain cytokines", "procedure": "Purified CD4+ T cells (CD4 T cells beads, Miltenyi or CD4 Dyna Beads, Invitrogen) were cultured in RPMI complete medium (as above) together with DC and irradiated feeder cells (40 Gy) in 2:1:1 ratio for 72 or 96 h. Polyclonal CD4+ T cells were stimulated with anti-CD3 (2C11) and anti-CD28 (37.51) (BioXcell); OT-II cells with OVA peptide (Pepscan) and Trp-1 cells with Trp-1 peptide (Pepscan) at concentration indicated in figure legend. Mouse CD4 T cells were cultured with aCD25 (PC61) and aIL-2 (JES6-1A12, BioXcell).\nWe therefore evaluated the potential contribution of CGAMMA receptor cytokines to the upregulation of GzmB in tumour-reactive CD4^+ T cells."}, "[3]": {"conditions": "compared to control compound BI-5273"}, "[4]": {"conditions": "relative to control compound BI-5273"}}}
{"molecule": "C[C@@H]1C[C@H](C)CN(c2ncc(Cl)c(Nc3ccc4c(c3)cc(OC(C)(C)C(=O)O)c(=O)n4C)n2)C1", "note": "[BI-5273]", "values": [{"measurement": "Bcl6 inhibitor activity", "setting": "Bcl6", "value": "significantly reduced Bcl6 inhibitor activity"}]}
{"molecule": "Basiliximab", "values": [{"measurement": "GzmB expression", "setting": "human naive CD4+ T cells", "value": "significantly reduced GzmB expression to levels below those of the untreated control sample"}]}
{"molecule": "C[C@@H]1CN(c2ncc(Cl)c(Nc3ccc4c(c3)n(CCC(C)(C)O)c(=O)n4C)n2)C[C@H](C)C1(F)F", "note": "[CCT369260, 5-((5-chloro-2-((3R,5S)-4,4-difluoro-3,5-dimethylpiperidin-1-yl)pyrimidin-4-yl)amino)-3-(3-hydroxy-3-methylbutyl)-1-methyl-1,3-dihydro-2H-benzo[d]imidazol-2-one]", "values": [{"measurement": "Mean fluorescence intensity (MFI) of GZMB in human CD4+ effector T cells", "setting": "[1]; [3]", "value": "increased GZMB expression"}, {"measurement": "Percentage of human CD4+ effector T cells that express GZMB", "setting": "[1]; [4]", "value": "significantly greater percentage"}, {"measurement": "Percentage of human CD8+ T cells that express BCL6", "setting": "human CD8+ T cells", "value": "significantly lower percentage"}, {"measurement": "Percentage of human CD8+ T cells that express GZMB", "setting": "human CD8+ T cells", "value": "A decrease, although not statistically significant"}]}
{"molecule": "CNC(=O)COc1cc2cc(Nc3nc(N4C[C@H](C)C[C@H](C)C4)ncc3Cl)ccc2n(C)c1=O", "note": "[BI-3802]", "values": [{"measurement": "Mean fluorescence intensity of GZMB in CD4+ effector T cells", "setting": "CD4+ effector T cells; [3]", "value": "increased GZMB expression"}, {"measurement": "Percentage of CD4+ effector T cells that express GZMB", "setting": "CD4+ effector T cells; [4]", "value": "significantly greater percentage"}]}
{"molecule": "IL-7: cytokine (Peprotech) added to T cell cultures (protein, UniProt P13232 26-177, looked up) Interleukin-7: DCDIEGKDGKQYESVLMVSIDQLLDSMKEIGSNCLNNEFNFFKRHICDANKEGMFLFRAARKLRQFLKMNSTGDFDLHLLKVSEGTTILLNCTGQVKGRKPAALGEAQPTKSLEENKSLKEQKKLNDLCFLKRLLQEIKTCWNKILMGTKEH", "values": [{"measurement": "Induction of GzmB", "setting": "[2]", "value": "at a much lower level"}]}
